Numbers after ± are expanded uncertainties.
Conditions: 101.33 kPa, Liquid, Hot wire method

CC(C)C(C)(C)C [2,2,3-trimethylbutane]
Conditions | thermal conductivity [W/m/K] | thermal diffusivity [m2/s]
257.27 K | 0.1051 ± 0.00073 | –
257.53 K | 0.105 ± 0.00073 | –
257.81 K | 0.1049 ± 0.00073 | –
258.21 K | – | 7.28e-08 ± 1.4e-09
258.88 K | – | 7.27e-08 ± 1.4e-09
259.58 K | – | 7.26e-08 ± 1.4e-09
277.62 K | 0.1001 ± 0.0007 | –
277.9 K | 0.0999 ± 0.0007 | –
278.17 K | 0.0998 ± 0.0007 | –
278.57 K | – | 6.81e-08 ± 1.3e-09
279.26 K | – | 6.79e-08 ± 1.3e-09
279.93 K | – | 6.77e-08 ± 1.3e-09
296.29 K | 0.09516 ± 0.00067 | –
296.58 K | 0.09508 ± 0.00067 | –
296.87 K | 0.09497 ± 0.00067 | –
297.2 K | – | 6.29e-08 ± 1.2e-09
297.91 K | – | 6.32e-08 ± 1.2e-09
298.61 K | – | 6.3e-08 ± 1.2e-09
313.91 K | 0.09108 ± 0.00065 | –
314.21 K | 0.09098 ± 0.00065 | –
314.52 K | 0.09085 ± 0.00065 | –
314.85 K | – | 6e-08 ± 1.1e-09
315.57 K | – | 6e-08 ± 1.1e-09
316.3 K | – | 5.98e-08 ± 1.1e-09
331.18 K | 0.08718 ± 0.00062 | –
331.48 K | 0.08706 ± 0.00062 | –
331.79 K | 0.0869 ± 0.00062 | –
332.15 K | – | 5.72e-08 ± 1.1e-09
332.87 K | – | 5.7e-08 ± 1.1e-09
333.59 K | – | 5.66e-08 ± 1.1e-09

CC(C)CC(C)(C)C [2,2,4-trimethylpentane]
Conditions | thermal conductivity [W/m/K] | thermal diffusivity [m2/s]
259.11 K | 0.1042 ± 0.00073 | –
259.32 K | 0.1041 ± 0.00073 | –
259.52 K | 0.104 ± 0.00073 | –
259.89 K | – | 7.3e-08 ± 1.4e-09
260.43 K | – | 7.32e-08 ± 1.4e-09
260.92 K | – | 7.33e-08 ± 1.4e-09
277.52 K | 0.09971 ± 0.0007 | –
277.74 K | 0.09966 ± 0.0007 | –
277.93 K | 0.09958 ± 0.0007 | –
278.29 K | – | 6.86e-08 ± 1.3e-09
278.84 K | – | 6.88e-08 ± 1.3e-09
279.31 K | – | 6.87e-08 ± 1.3e-09
295.67 K | 0.09516 ± 0.00067 | –
295.9 K | 0.09509 ± 0.00067 | –
296.1 K | 0.09502 ± 0.00067 | –
296.41 K | – | 6.37e-08 ± 1.2e-09
296.96 K | – | 6.41e-08 ± 1.2e-09
297.45 K | – | 6.42e-08 ± 1.2e-09
313.79 K | 0.09108 ± 0.00065 | –
314.02 K | 0.091 ± 0.00065 | –
314.22 K | 0.09093 ± 0.00065 | –
314.56 K | – | 6.07e-08 ± 1.1e-09
315.1 K | – | 6.07e-08 ± 1.1e-09
315.57 K | – | 6.07e-08 ± 1.1e-09
327.69 K | 0.08786 ± 0.00063 | –
327.93 K | 0.0878 ± 0.00063 | –
328.14 K | 0.08771 ± 0.00063 | –
328.47 K | – | 5.82e-08 ± 1.1e-09
329.04 K | – | 5.83e-08 ± 1.1e-09
329.52 K | – | 5.81e-08 ± 1.1e-09

CCC(C)(C)C [2,2-dimethylbutane]
Conditions | thermal conductivity [W/m/K] | thermal diffusivity [m2/s]
257.48 K | 0.1055 ± 0.001 | –
257.84 K | 0.1053 ± 0.001 | –
258.3 K | 0.1051 ± 0.001 | –
258.74 K | – | 7.54e-08 ± 1.5e-09
259.62 K | – | 7.49e-08 ± 1.5e-09
260.73 K | – | 7.46e-08 ± 1.5e-09
271.49 K | 0.1011 ± 0.001 | –
271.84 K | 0.101 ± 0.001 | –
272.32 K | 0.1008 ± 0.001 | –
272.79 K | – | 7.16e-08 ± 1.4e-09
273.65 K | – | 7.14e-08 ± 1.4e-09
274.78 K | – | 7.08e-08 ± 1.4e-09
279.86 K | 0.09854 ± 0.00098 | –
280.24 K | 0.09842 ± 0.00098 | –
280.73 K | 0.09822 ± 0.00098 | –
281.17 K | – | 6.94e-08 ± 1.4e-09
282.06 K | – | 6.92e-08 ± 1.4e-09
283.23 K | – | 6.85e-08 ± 1.4e-09
297.98 K | 0.09321 ± 0.00093 | –
298.42 K | 0.09307 ± 0.00093 | –
298.91 K | 0.09289 ± 0.00093 | –
299.31 K | – | 6.48e-08 ± 1.3e-09
300.31 K | – | 6.46e-08 ± 1.3e-09
301.44 K | – | 6.41e-08 ± 1.3e-09
319.35 K | 0.08745 ± 0.00088 | –
319.75 K | 0.08729 ± 0.00088 | –
320.28 K | 0.08709 ± 0.00088 | –
320.72 K | – | 6.03e-08 ± 1.2e-09
321.62 K | – | 5.99e-08 ± 1.2e-09
322.83 K | – | 5.95e-08 ± 1.2e-09

CCCC(C)(C)C [2,2-dimethylpentane]
Conditions | thermal conductivity [W/m/K] | thermal diffusivity [m2/s]
256.16 K | 0.1094 ± 0.00076 | –
256.52 K | 0.1091 ± 0.00076 | –
256.84 K | 0.109 ± 0.00076 | –
257.01 K | – | 7.66e-08 ± 1.4e-09
257.9 K | – | 7.58e-08 ± 1.4e-09
258.7 K | – | 7.56e-08 ± 1.4e-09
275.45 K | 0.1041 ± 0.00073 | –
275.83 K | 0.1039 ± 0.00073 | –
276.13 K | 0.1037 ± 0.00073 | –
276.31 K | – | 7.15e-08 ± 1.4e-09
277.21 K | – | 7.06e-08 ± 1.3e-09
277.95 K | – | 7.03e-08 ± 1.3e-09
296.32 K | 0.09819 ± 0.00069 | –
296.69 K | 0.09803 ± 0.00069 | –
297.02 K | 0.09794 ± 0.00069 | –
297.15 K | – | 6.57e-08 ± 1.2e-09
298.03 K | – | 6.53e-08 ± 1.2e-09
298.82 K | – | 6.49e-08 ± 1.2e-09
317.22 K | 0.09288 ± 0.00066 | –
317.63 K | 0.09264 ± 0.00066 | –
317.95 K | 0.09251 ± 0.00066 | –
318.05 K | – | 6.1e-08 ± 1.1e-09
318.98 K | – | 6.05e-08 ± 1.1e-09
319.72 K | – | 6.03e-08 ± 1.1e-09
336.91 K | 0.08793 ± 0.00063 | –
337.31 K | 0.08776 ± 0.00063 | –
337.64 K | 0.0876 ± 0.00063 | –
337.72 K | – | 5.67e-08 ± 1.1e-09
338.63 K | – | 5.61e-08 ± 1.1e-09
339.39 K | – | 5.59e-08 ± 1.1e-09

Source: the NIST ThermoML archive (doi:10.1021/je020125e)
